Reference: ChEMBL document CHEMBL1145503, “Paradoxical effect of Echinocandins across Candida species in vitro: evidence for echinocandin-specific and candida species-related differences” (2007)
Converted amounts (≈) assume the structure as drawn. Numbered stars: 1 amine (or outer) side, 2 acyl side, 3 side chain; on linkers, the order of the positions; unused ones are H or OH. Bridge positions count the residues as written; N and C are the ends. Square brackets hold non-standard residues; d marks the D form. Peptide text beside a SMILES is read from it. * marks the point of attachment. hTyr(3S-OH,4S-OH,3'-OSO3H) = N[C@H](C(=O)O)[C@H](O)[C@@H](O)c1ccc(O)c(OS(=O)(=O)O)c1; pTerphenylCO(4''-OnC5H11) = CCCCCOc1ccc(-c2ccc(-c3ccc(C(=O)*)cc3)cc2)cc1; Orn(4R-OH,5R-OH) = O=C([C@H](C[C@@H](O)[C@@H](O)N[*:3])N[*:1])[*:2]; hTyr(3S-OH,4S-OH) = N[C@H](C(=O)O)[C@H](O)[C@@H](O)c1ccc(O)cc1; Pro(3S-OH,4S-Me) = C[C@H]1CN[C@H](C(=O)O)[C@H]1O; X1 = CCCCCOc1ccc(-c2cc(-c3ccc(C(=O)*)cc3)no2)cc1; Gln(3R-OH) = NC(=O)C[C@@H](O)[C@H](N)C(=O)O; Hyp = O=C(O)[C@@H]1C[C@@H](O)CN1

Legend:
Assay type in all cases: functional
[1] = test system: Candida parapsilosis; assay: Antifungal activity against Candida parapsilosis after 48 hrs; conditions: Lodderomyces parapsilosis
[2] = test system: Candida parapsilosis; assay: Paradoxical effect in Candida parapsilosis assessed as increase in turbidity at 16 times MIC
[3] = test system: Nakaseomyces glabratus; assay: Antifungal activity against Candida glabrata after 48 hrs
[4] = test system: Candida tropicalis; assay: Antifungal activity against Candida tropicalis after 48 hrs
[5] = test system: Pichia kudriavzevii; assay: Paradoxical effect in Candida krusei assessed as increase in turbidity at 16 times MIC
[6] = test system: Nakaseomyces glabratus; assay: Paradoxical effect in Candida glabrata assessed as increase in turbidity at 16 times MIC
[7] = test system: Pichia kudriavzevii; assay: Antifungal activity against Candida krusei after 48 hrs
[8] = test system: Candida albicans; assay: Antifungal activity against Candida albicans after 48 hrs
[9] = test system: Candida albicans; assay: Paradoxical effect in Candida albicans assessed as increase in turbidity at 16 times MIC
[10] = test system: Candida tropicalis; assay: Paradoxical effect in Candida tropicalis assessed as increase in turbidity at 16 times MIC
[11] = test system: Candida albicans; assay: Paradoxical effect in Candida albicans assessed as increase in turbidity at 64 times MIC
[12] = test system: Candida tropicalis; assay: Paradoxical effect in Candida tropicalis assessed as increase in turbidity at 64 times MIC
[13] = test system: Pichia kudriavzevii; assay: Paradoxical effect in Candida krusei assessed as increase in turbidity at 64 times MIC
[14] = test system: Nakaseomyces glabratus; assay: Paradoxical effect in Candida glabrata assessed as increase in turbidity at 64 times MIC
[15] = test system: Candida parapsilosis; assay: Paradoxical effect in Candida parapsilosis assessed as increase in turbidity at 64 times MIC
[16] = test system: Candida albicans; assay: Paradoxical effect in Candida albicans assessed as increase in turbidity at 96 times MIC
[17] = test system: Pichia kudriavzevii; assay: Paradoxical effect in Candida krusei assessed as increase in turbidity at 96 times MIC
[18] = test system: Nakaseomyces glabratus; assay: Paradoxical effect in Candida glabrata assessed as increase in turbidity at 96 times MIC
[19] = test system: Candida tropicalis; assay: Paradoxical effect in Candida tropicalis assessed as increase in turbidity at 96 times MIC
[20] = test system: Candida parapsilosis; assay: Paradoxical effect in Candida parapsilosis assessed as increase in turbidity at 96 times MIC

Structure (SMILES)	MIC50 [1] [µg/mL]	MIC90 [1] [µg/mL]	MIC50 [3] [µg/mL]	MIC90 [3] [µg/mL]	MIC50 [4] [µg/mL]	MIC90 [4] [µg/mL]	MIC50 [7] [µg/mL]	MIC90 [7] [µg/mL]	MIC50 [8] [µg/mL]	MIC90 [8] [µg/mL]	other results
CCCCCOc1ccc(-c2ccc(-c3ccc(C(=O)N[C@H]4C[C@@H](O)[C@@H](O)NC(=O)[C@@H]5[C@@H](O)[C@@H](C)CN5C(=O)[C@H]([C@@H](C)O)NC(=O)[C@H]([C@H](O)[C@@H](O)c5ccc(O)cc5)NC(=O)[C@@H]5C[C@@H](O)CN5C(=O)[C@H]([C@@H](C)O)NC4=O)cc3)cc2)cc1 [ANIDULAFUNGIN] ({pTerphenylCO(4''-OnC5H11)}-[Orn(4R-OH,5R-OH)]T[Hyp][hTyr(3S-OH,4S-OH)]T[Pro(3S-OH,4S-Me)]; lactam 1-C)	0.5 (≈ 0.438 µM)	0.5 (≈ 0.438 µM)	0.5 (≈ 0.438 µM)	0.5 (≈ 0.438 µM)	0.5 (≈ 0.438 µM)	1 (≈ 0.877 µM)	0.25 (≈ 0.219 µM)	0.25 (≈ 0.219 µM)	0.5 (≈ 0.438 µM)	1 (≈ 0.877 µM)	Activity [2]: 0%; Activity [5]: 0%; Activity [6]: 0%; Activity [9]: 40%; Activity [10]: 20%
CC[C@H](C)C[C@H](C)CCCCCCCCC(=O)N[C@H]1C[C@@H](O)[C@@H](NCCN)NC(=O)[C@@H]2[C@@H](O)CCN2C(=O)[C@H]([C@H](O)CCN)NC(=O)[C@H]([C@H](O)[C@@H](O)c2ccc(O)cc2)NC(=O)[C@@H]2C[C@@H](O)CN2C(=O)[C@H]([C@@H](C)O)NC1=O [CASPOFUNGIN]	0.5 (≈ 0.457 µM)	1 (≈ 0.915 µM)	0.25 (≈ 0.229 µM)	0.5 (≈ 0.457 µM)	1 (≈ 0.915 µM)	1 (≈ 0.915 µM)	0.06 (≈ 0.0549 µM)	1 (≈ 0.915 µM)	0.125 (≈ 0.114 µM)	0.25 (≈ 0.229 µM)	Activity [11]: 60%; Activity [12]: 40%; Activity [13]: 10%; Activity [14]: 0%; Activity [15]: 90%
CCCCCOc1ccc(-c2cc(-c3ccc(C(=O)N[C@H]4C[C@@H](O)[C@@H](O)NC(=O)[C@@H]5[C@@H](O)[C@@H](C)CN5C(=O)[C@H]([C@H](O)CC(N)=O)NC(=O)[C@H]([C@H](O)[C@@H](O)c5ccc(O)c(OS(=O)(=O)O)c5)NC(=O)[C@@H]5C[C@@H](O)CN5C(=O)[C@H]([C@@H](C)O)NC4=O)cc3)no2)cc1 [MICAFUNGIN] (X1-[Orn(4R-OH,5R-OH)]T[Hyp][hTyr(3S-OH,4S-OH,3'-OSO3H)][Gln(3R-OH)][Pro(3S-OH,4S-Me)]; lactam 1-C)	1 (≈ 0.787 µM)	2 (≈ 1.57 µM)	0.06 (≈ 0.0472 µM)	0.125 (≈ 0.0984 µM)	0.06 (≈ 0.0472 µM)	0.06 (≈ 0.0472 µM)	0.5 (≈ 0.394 µM)	0.5 (≈ 0.394 µM)	0.25 (≈ 0.197 µM)	0.25 (≈ 0.197 µM)	Activity [16]: 0%; Activity [17]: 60%; Activity [18]: 0%; Activity [19]: 70%; Activity [20]: 0%
